Measurements as given in US11986513B2, “GAL(1-15) and analogues thereof for use in the prevention and/or treatment of alcohol-related effects and disorders” (UNIVERSIDAD DE MÁLAGA, priority 2017, dated 2024).
Where two headings read alike, the source gives them in different places. One block for each compound: values may come before it.

Experiments:
GALR1 [1] = details: for GALR1 mRNA expression in the corpus striatum: naive rats, mean ± SEM
Description: (§1) The method to perform RNA isolation and RT-PCR was described previously (Millon et al., 2015). Total RNA was isolated from the corpus striatum using RNeasy Lipid Tissue kit (Qiagen, Hilden, Germany). cDNA was obtained using a Reverse Transcriptase Core kit (Eurogentec, Seraing, Belgium). These steps were performed according to the manufacturer's instructions.
(§2) All PCR analyses were performed in triplicate using Power SYBR Green PCR Master Mix (Applied Biosystems, Foster City, USA) in the 7500 RT-PCR system (Applied Biosystems, Foster City, USA). The primer sequences used in this study are:
(§3) The data was analysed using the comparative Ct method and normalised to measurements of glyceraldehyde-3-phosphate dehydrogenase (GAPDH) mRNA.
(§4) Groups of naïve rats were injected i.p. with ethanol at 4 g/kg (Bilbao et al., 2016), dissolved in a 0.9% sterile saline solution (w/v), and 0, 2, and 4 hours after the injection the brains were extracted after a rapid decapitation. The corpus striatum was quickly extracted from all the animals and frozen immediately on solid CO2 until use. The method to perform RNA isolation and RT-PCR was described previously.

GALR2 [2] = details: for GALR2 mRNA expression in the corpus striatum: naive rats, mean ± SEM
Description: as §1, §2, §3, §4

[3] = test system: hepatic cytosolic alcohol dehydrogenase (ADH)
Description: The activity of hepatic cytosolic alcohol dehydrogenase (ADH) in the rats from the two-bottle choice test was analysed. ADH activity has a good correlation with ethanol elimination rates in vivo (Lumeng et al., 1979) and chronic ethanol administration causes an increase in ADH activity (Buris et al., 1985).
The livers were removed 2 hours after i.c.v. injections and frozen in solid CO2 until use. Determination of ADH activity was performed in homogenized liver tissue in a TrisHCl solution (10 mM, pH=8.8; 0.5 mM dithiothreitol) centrifuged at 12.000 g for 10 minutes. ADH activity was evaluated using a microassay adapted to Cobas Mira analyser according to Shephard and colleagues (Shephard et al., 1987). Briefly, 300 μl of NAD solution (2.9 mM in 0.1 M Glycine/NaOH: p=10) was added to 30 μl of sample. The first optical reading was recorded before the addition of 20 μl of 17 mM ethanol, and then the rate of change in absorption of the NADH chromogen was recorded at 340 nm over time on the Cobas Mira analyser at 37° C. One activity unit was defined as the reduction of […] NAD to NADH/min at 37° C.

rats [4] = test: Locomotor activity (open field), ethanol-reduced locomotion; format: in vivo, rat
Description: In this experiment, the effects of GAL(1-15) (3 nmol) on ethanol-reduced locomotion (1.75 g/kg; intraperitoneal (i.p.)) (Vallof et al., 2016) were investigated. Locomotor activity was recorded in rat open field (100×100×50 cm) where animals were individually placed and left to freely explore. Their behaviour was recorded over a 30-minute period by ceiling-mounted video camera, and locomotor activity was analysed using the video-tracking software EthovisionXT. After each assay, all surfaces were cleaned with a paper towel and 70% ethanol solution. For locomotor activity, total distance travelled (cm) and mean speed (cm/s) were recorded. Groups of rats were administered via i.c.v. GAL(1-15) or vehicle 20 minutes before the test; i.p. ethanol (1.75 g/kg) or saline solution administration was performed 5 minutes before the test.

GALR1 [5] = test: GALR1 mRNA expression in the corpus striatum during voluntary ethanol consumption (RT-PCR); format: in vivo, rat; details: 3 nmol i.c.v., 2 hours after administration, two-bottle choice rats, versus vehicle/EtOH
Description: (§5) Groups of rats from the two-bottle choice paradigm were killed by decapitation 2 hours after a single i.c.v. administration of 3 nmol of GAL(1-15) or vehicle, and the corpus striatum was dissected and frozen on solid CO2 until mRNA expression analysis.

rats [6] = test: Two-bottle choice test for voluntary ethanol consumption and preference; format: in vivo, rat; details: for preference for ethanol compared with GAL / ethanol intake compared with GAL: 3 nmol i.c.v. each
Description: Male Sprague—Dawley rats (body weight 225-250 g, age 8 weeks) were obtained from Criffa and maintained in a humidity-controlled and temperature-controlled (20-22° C.) room. The rats in the two-bottle choice paradigm were during the entire protocol maintained on a 12-hour reversed light/dark cycle (lights off at 10 am) whereas the other rats were kept on 12-hour light/dark cycle. The animals had free access to food pellets and tap water. All animal experimentation was conducted in accordance with the University of Malaga Guidelines for the Care and Use of Laboratory Animals.
This protocol has been used previously (Diaz-Cabiale et al., 2011; Millon et al., 2015). Briefly, the rats were anaesthetised intraperitoneally with Equitesin (3.3 ml/kg body weight) and stereotaxically implanted with a unilateral chronic 22-gauge stainless steel guide cannula into the right lateral cerebral ventricle using the following coordinates: 1.4 mm lateral and 1 mm posterior to bregma and 3.6 mm below the surface of the skull (Paxinos, 1986). After surgery, animals were individually housed and allowed a recovery period of 7 days. The injections in the lateral ventricle were performed using a 26-gauge stainless steel injection cannula connected via PE-10 tubing to a Hamilton syringe. The total volume was 5 μl per injection, and the infusion time was 1 minute.
The solutions were prepared freshly, and the peptides were dissolved in artificial cerebrospinal fluid (with a composition of […], […] NaH2CO3, […] KCl, 0.5 nM KH2PO4, 1.2 nM CaCl2, 1.8 nM MgCl2, 0.5 nM Na2SO4, and 5.8 nM D-glucose, pH 7.4). GAL was obtained from NeoMPS, Strasbourg, France; GAL(1-15) and the GALR2 receptor antagonist M871 were obtained from Tocris Bioscience, Bristol, UK.
The two-bottle choice test was used to determine the voluntary ethanol consumption of rats as described previously (Castilla-Ortega et al., 2016). Briefly, after 7 days of water consumption (both bottles), a choice between water and increasing concentrations of ethanol [3, 6, and 10% (v/v)] was offered for 7 days each. A choice between 10% ethanol (v/v) and water was offered for several days until reaching a stable baseline value. Water and ethanol consumption were recorded daily. The position of the bottles was changed every day to avoid preference for location. Water intake (g/kg), ethanol intake (g/kg), and preference ([ethanol consumption/total fluid [water plus ethanol] consumption×100]) were calculated for each animal. Throughout the experiment, evaporation and spillage estimates were calculated using an empty cage with two bottles, one containing water and the other containing the appropriate ethanol solution. In the experiments, a choice between ethanol (10%) and water was offered.
Three sets of experiments were conducted in the two bottle choice paradigm. In the first set of experiments, a dose-response curve of GAL(1-15) was performed. For this, groups of rats received i.c.v. 1 nmol or 3 nmol of GAL(1-15), or vehicle 2, 14, and 24 hours before the measurements. In the second set of experiments, the effects of the two-bottle choice test for GAL and GAL(1-15) were compared. For this, groups of rats received i.c.v. 3 nmol of GAL, 3 nmol of GAL(1-15), or vehicle, 2, 14, and 24 hours before the test. In the last set of experiments, the role of GALR2 was studied; for this, groups of rats received i.c.v. 3 nmol of GAL(1-15) combined with 3 nmol of GALR2 […] before the measurements.

C-Fos = C-Fos mRNA expression in the corpus striatum during voluntary ethanol consumption (RT-PCR); format: in vivo, rat; details: 3 nmol i.c.v., 2 hours after administration, two-bottle choice rats, versus vehicle/EtOH
Description: as §5

GALR2 [7] = test: GALR2 mRNA expression in the corpus striatum during voluntary ethanol consumption (RT-PCR); format: in vivo, rat; details: 3 nmol i.c.v., 2 hours after administration, two-bottle choice rats, versus vehicle/EtOH (p=0.101)
Description: as §5

Rab5 = Rab5 mRNA expression in the corpus striatum during voluntary ethanol consumption (RT-PCR); format: in vivo, rat; details: 3 nmol i.c.v., 2 hours after administration, two-bottle choice rats, versus vehicle/EtOH
Description: as §5

rats [8] = test: Ethanol self-administration (operant model); format: in vivo, rat
Description: The use of operant models as substance self-administration models are widely used for performing motivation or hedonic studies. In these models, the animal has to “work” to obtain the reinforcing substance by pressing a lever, which allows the investigator to observe the animal's interest in the substance, as well as to learn the effect of the substance as a reward for the animal (Leeman et al., 2010). The method is performed according to earlier protocols (Alén et al., 2009) with some modifications. The test consists of a two-week training phase in which rats are kept the first 2 to 4 days with a water restriction to facilitate the learning of the task of pressing the lever to obtain the reinforcement. Animals are exposed daily to 30-minute sessions in self-administration boxes (Letica instruments). The boxes are equipped with two retractable levers located on both sides of a liquid dispenser (0.1 mL) positioned in the centre of the box panel. […] Once the training period is over, where all the animals have proven to have learned the task, daily sessions continue to be performed until establishing a stable baseline. Then training begins for ethanol consumption, and for this purpose a gradual increase in ethanol concentration (from 2% to 10%) is performed at the same time as a gradual reduction in saccharin concentration (from 0.16% to 0%) over several days, where after this period the animals become accustomed consuming 10% ethanol. After several sessions to establish a stable baseline, the animals are subjected to placement of a chronic intracerebroventricular cannula, leaving them for several days after this intervention to again establish a stable ethanol consumption baseline. Then the test is performed, consisting of a 30-minute session after administration of the different treatments, recording the number of active lever presses, as well as the number of rewards (FIG. 7).
Two sets of ethanol self-administration experiments were performed. In the first set of experiments, a dose-response curve of GAL(1-15) was performed. For this, groups of rats received i.c.v. GAL(1-15) at doses of 0.3, 1, and 3 nmol, or vehicle. In the second set of experiments, the effect of GAL 3 nmol and GAL(1-15) 3 nmol in ethanol self-administration were compared.

[9] = 0 hours after i.p. injection of EtOH (4 g/kg)
[10] = 2 hours after i.p. injection of EtOH (4 g/kg)
[11] = 4 hours after i.p. injection of EtOH (4 g/kg)
[12] = ethanol 1.75 g/kg i.p., five minutes after administration, open field
[13] = 3 nmol i.c.v. each, 2, 14, 24 hours
[14] = i.c.v., any dose (1 or 3 nmol), any time point

ADH activity compared with the baseline group ([3]; voluntary ethanol intake through the two-bottle choice test protocol): significant increase
Compound: CCO [EtOH, ethanol]
GALR1 mRNA expression in the corpus striatum (GALR1 [1]; [9]): 0.87 ± 0.2 | GALR1 mRNA expression in the corpus striatum (GALR1 [1]; [10]): 0.60 ± 0.1 | GALR1 mRNA expression in the corpus striatum (GALR1 [1]; [11]): 0.47 ± 0.1 | effect on GALR1 expression in the corpus striatum (GALR1 [1]; single injection of ethanol 4 g/kg i.p., at 2 and 4 hours): no effect | GALR2 mRNA expression in the corpus striatum (GALR2 [2]; [9]): 1.21 ± 0.1 | GALR2 mRNA expression in the corpus striatum (GALR2 [2]; [10]): 1.23 ± 0.1 | GALR2 mRNA expression in the corpus striatum (GALR2 [2]; [11]): 1.44 ± 0.1 | effect on GALR2 mRNA levels in the corpus striatum (GALR2 [2]; single injection of ethanol 4 g/kg i.p., any time point): No effects were observed | ADH activity (liver) ([3]; voluntary ethanol intake in two-bottle choice test, i.c.v. cerebrospinal fluid vehicle, mean ± SEM): 313.1 ± 10.6 protein IU/g | distance travelled (rats [4]; [12]): reduced | mean speed (rats [4]; [12]): reduced

Compound: Gly-Trp-Thr-Leu-Asn-Ser-Ala-Gly-Tyr-Leu-Leu-Gly-Pro-His-Ala (GWTLNSAGYLLGPHA; General formula for GAL 1-15) [GAL(1-15)]
GALR1 mRNA levels in corpus striatum (GALR1 [5]): significant decrease | preference for ethanol (rats [6]; 1 nmol i.c.v.): no effects | ethanol intake (rats [6]; 1 nmol i.c.v., all the time points analysed (2, 14, 24 hours)): no effect | food intake, difference between GAL and GAL(1-15) (rats [6]; [13]): No differences were found | water intake, difference between GAL and GAL(1-15) (rats [6]; [13]): No differences were found | preference for ethanol compared with GAL (rats [6]; 2 hours after administration): decreased | ethanol intake compared with GAL (rats [6]; 2 hours after injection): significantly decreased | ethanol intake compared with GAL (rats [6]; 14 hours after injection): significantly decreased | ethanol intake compared with GAL (rats [6]; 24 hours after injection): significantly decreased | preference for ethanol compared with GAL (rats [6]; 24 hours later): maintained | decrease in the preference for ethanol (rats [6]; 3 nmol i.c.v., 2 hours after administration): 90% | ethanol intake (rats [6]; 3 nmol i.c.v., 2 hours after administration, 10% ethanol vs water, versus vehicle): significantly decreased | ethanol intake (rats [6]; 3 nmol i.c.v., 14 hours after administration, 10% ethanol vs water, versus vehicle): significantly decreased | preference for ethanol (decrease) (rats [6]; 3 nmol i.c.v., 24 hours): maintained | ethanol intake (rats [6]; 3 nmol i.c.v., 24 hours after administration, 10% ethanol vs water, versus vehicle): significantly decreased | food intake (rats [6]; [14]): no differences were found | water intake (rats [6]; [14]): no differences were found | mRNA levels of C-Fos in corpus striatum (C-Fos): significant increase | GALR2 expression in corpus striatum (GALR2 [7]): slight reduction | mRNA levels of Rab5 in corpus striatum (Rab5): significant increase | distance travelled (rats [4]; GAL(1-15) 3 nmol i.c.v. 20 min before test, rats given i.p. ethanol 1.75 g/kg): decreased | distance travelled (rats [4]; GAL(1-15) 3 nmol i.c.v. 20 min before test, rats given systemic saline solution): no such effects were observed | mean speed (rats [4]; GAL(1-15) 3 nmol i.c.v. 20 min before test, rats systemically treated with ethanol 1.75 g/kg): decreased | number of reinforcements in ethanol self-administration (rats [8]; 0.3 nmol i.c.v. 15 min before the test): no effect | number of ethanol reinforcements (rats [8]; 1 nmol i.c.v. 15 min before the test, versus control): significant decrease | number of ethanol reinforcements (reduction) (rats [8]; 3 nmol i.c.v. 15 min before the test, versus control): even more pronounced | number of ethanol reinforcements compared with GAL (rats [8]; 3 nmol i.c.v. each, 15 min before the test): significantly reduces
